The values that follow are results of earlier work, collected in patent EP2179733A1, “PHARMACEUTICAL COMPOSITION COMBINING AN ANTIMICROBIAL AGENT AND A SELECTIVE ENKEPHALINASE ENZYME INHIBITOR, WHICH CAN BE USED TO CONTROL AND TREAT ACUTE BACTERIAL DIARRHOEA” (World Trade Import-Export, WTIE A.G., priority 2007, dated 2009).

The target of series [1] is T1, plasmatic enkephalinase (Homo sapiens, UniProt P08473).
T1 construct: from tissue; host or cells: plasma after oral administration of Racecadotril
T1 sequence (P08473 whole entry): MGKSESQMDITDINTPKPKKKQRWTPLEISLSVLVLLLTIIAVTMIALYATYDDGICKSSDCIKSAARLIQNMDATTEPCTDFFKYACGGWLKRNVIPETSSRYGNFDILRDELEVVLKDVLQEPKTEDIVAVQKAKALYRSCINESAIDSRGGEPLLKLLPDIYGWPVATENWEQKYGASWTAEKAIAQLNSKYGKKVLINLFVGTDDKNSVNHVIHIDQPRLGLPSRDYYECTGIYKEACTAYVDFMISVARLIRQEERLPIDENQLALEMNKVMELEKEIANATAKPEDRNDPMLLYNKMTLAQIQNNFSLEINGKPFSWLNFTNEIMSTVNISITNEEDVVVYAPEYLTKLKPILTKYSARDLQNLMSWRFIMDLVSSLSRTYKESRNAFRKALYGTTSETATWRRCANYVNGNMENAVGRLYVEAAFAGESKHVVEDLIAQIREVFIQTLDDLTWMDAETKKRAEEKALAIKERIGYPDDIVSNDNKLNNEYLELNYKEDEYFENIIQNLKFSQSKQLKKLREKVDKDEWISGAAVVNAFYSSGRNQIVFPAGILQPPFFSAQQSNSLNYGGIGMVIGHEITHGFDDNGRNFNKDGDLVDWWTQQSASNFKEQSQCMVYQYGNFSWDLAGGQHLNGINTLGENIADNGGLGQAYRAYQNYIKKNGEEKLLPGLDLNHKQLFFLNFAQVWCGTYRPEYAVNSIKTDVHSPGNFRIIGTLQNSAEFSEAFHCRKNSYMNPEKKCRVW

For the compound `CC(=O)SCC(Cc1ccccc1)C(=O)NCC(=O)OCc1ccccc1` (stereo not drawn) [Racecadotril], in series [1] (1.5 mg/kg oral doses), the “duration of inhibiting effect over plasmatic enkephalinase” value is listed as “about 8 hours” and the “maximum enzymatic inhibition level” value is given as “about 90%”. For the same compound, in series [1] (oral administration), the “start of plasmatic enkephalinase inhibiting effect after administration” value is 30 min and the “time to maximum activity” value was 2 h. Moreover, the “delay of maximum activity when administered with food” value in series [1] (with food) was “about one and half”. Also, where the note is “in vivo”, the “administered dose distributed in tissues” value is reported as 1% and the mean life entry is “about 3 hours”. For the same compound, the “time to maximum concentration from administration” value (oral administration) is 60 min. The “bioavailability when administered with food” value (with food) was “not modified”.
